Literature values in patent publication US8978468B2, “Nonvisual indication of an unwanted chemical in an ingestible substance” (priority 2009, dated 2015).
Where two headings read alike, the source gives them in different places.

Tests used:
[1] = species and route not given
[2] = tested on: mammal (species unspecified); conditions: route not given

## 2-aminoethanol
rat; oral
  Toxic Dose oral-rat LD50: oral-rat LD50 1720 mg/kg

## 2-methylpropane-1-thiol
rat; gavage
  Toxic Dose gavage-rat LD50: gavage-rat LD50 7168 mg/kg
rat; oral
  Toxic Dose oral-rat LD50: oral-rat LD50 7168 mg/kg

## CC1OCCC1S (stereo not drawn) [2-methyltetrahydrofuran-3-thiol]
mouse; gavage
  Toxic Dose gavage-mouse LD50: gavage-mouse LD50 1860 mg/kg

## CC(C)C(C)S (stereo not drawn) [3-methylbutane-2-thiol]
rat; gavage, sex: M, F
  Toxic Dose gavage-rat LD50 [sex: M, F]: 540 mg/kg

## NCCCC(=O)O [4-aminobutanoic acid]
mouse; oral
  Toxic Dose oral-mouse LD50: oral-mouse LD50 12680 mg/kg
mouse; route not given
  Toxic Dose mouse LD50: mouse LD50 7230 mg/kg

## NC1CCCCC1 [cyclohexanamine]
rat; in vivo, po
  Toxic Dose oral-rat LD50: oral-rat LD50 11 mg/kg
[1]
  Toxic Dose LD50: LD50 224 mg/kg

## SC1CCCC1 [cyclopentanethiol]
mouse; oral, sex: M, F (5/group)
  Toxic Dose oral-mouse LD50 [sex: M, F (5/group)]: (5/group)] 2680 mg/kg

## butane-1-thiol
rat; gavage
  Toxic Dose gavage-rat LD50: gavage-rat LD50 1500 mg/kg

## propan-1-amine
[2]
  Toxic Dose mammal (species unspecified) LD50: LD50 580 mg/kg
rat; oral
  Toxic Dose oral-rat LD50: oral-rat LD50 370 mg/kg

## propan-2-amine
[2]
  Toxic Dose mammal (species unspecified) LD50: LD50 500 mg/kg
rat; oral
  Toxic Dose oral-rat LD50: oral-rat LD50 111 mg/kg
